Assay results published in ChEMBL document CHEMBL5532636 (Eur J Med Chem, 2023).
In brackets after ≈: the same amount, converted by molar mass.

Tests used:
[1] = molecular target: Replicase polyprotein 1ab (Severe acute respiratory syndrome coronavirus 2, UniProt P0DTD1); assay: Inhibition of SARS-CoV-2 PLpro using Ubiquitin-AMC as substrate by continuous kinetic assay
[2] = Oral bioavailability in monkey; format: ADME, organism-based, Macaca mulatta; conditions: rhesus monkey, in vivo
[3] = Aqueous solubility of compound; format: physicochemical; conditions: buffer
[4] = tested on: Severe acute respiratory syndrome coronavirus 2; assay: Binding affinity to SARS-CoV-2 nsp12 assessed as change in melting temperature preincubated for 20 mins followed by heating by thermal shift assay
[5] = Cytotoxicity against African green monkey Vero cells; format: toxicity, cell-based; conditions: chlorocebus sabaeus
[6] = tested on: SARS-CoV-2; assay: Inhibition of SARS-CoV-2 pseudovirus entry in human Huh-7 cells at 30 uM preincubated with cell culture for 1 hr followed by pseudovirus infection measured after 48 hrs by luciferase reporter gene assay relative to control; format: functional; conditions: Severe acute respiratory syndrome coronavirus 2, Huh-7, time 49 hrs
[7] = Cytotoxicity against African green monkey Vero cells incubated for 4 days by MTS assay; format: toxicity, cell-based; conditions: chlorocebus sabaeus, time 4 day
[8] = Cytotoxicity against human Calu-3 cells incubated for 4 days by MTS assay; format: toxicity, cell-based; conditions: time 4 day
[9] = Cytotoxicity against African green monkey Vero cells by CCK8 assay; format: toxicity, cell-based; conditions: chlorocebus sabaeus
[10] = tested on: Human coronavirus OC43; assay: (§1) Antiviral activity against HCoV-OC43 infected in human HRT-18 cells assessed as inhibition in viral replication at 12.5 ug/ml preincubated with cell culture for 1 hr and further infected with virus for 1 hr followed by removal of virus particles and subsequent replacement of medium containing compound measured for 96 hrs post-infection by RT-PCR analysis relative to control; format: functional, HRT-18 cell line; conditions: Betacoronavirus 1, HRT-18, time 97 hrs
[11] = tested on: Bovine coronavirus; assay: as §1, with “B-CoV” for “HCoV-OC43”, “25” for “12.5”; format: functional, HRT-18 cell line; conditions: Betacoronavirus 1, HRT-18, time 98 hrs
[12] = Inhibition of C-terminal GST-tagged full-length recombinant SARS-CoV 3CLpro expressed in Escherichia coli BL21(DE3) using MCA-AVLQSGFR-Lys(Dnp)-Lys-NH2 as substrate preincubated for 10 mins followed by substrate addition measured for 3.5 mins by FRET assay; set-up: species or system Severe acute respiratory syndrome-related coronavirus
[13] = molecular target: Replicase polyprotein 1ab (Severe acute respiratory syndrome coronavirus 2) (UniProt P0DTD1); assay: Inhibition of SARS-CoV-2 3CLpro at 100 ug/ml preincubated for 30 mins followed by substrate addition measured after 4 hrs by fluorescence assay relative to control; conditions: dose 100.0 µg/ml, time 4.5 hrs
[14] = molecular target: Replicase polyprotein 1ab (Severe acute respiratory syndrome coronavirus 2) (UniProt P0DTD1); assay: Inhibition of full-length SARS-CoV-2 PLpro expressed in Escherichia coli BL21(DE3) using RLRGG-AMC as substrate at 50 uM preincubated for 10 mins followed by substrate addition measured for 5 mins by FRET assay relative to control; conditions: time 15.0 min
[15] = molecular target: Replicase polyprotein 1ab (Severe acute respiratory syndrome coronavirus 2) (UniProt P0DTD1); assay: Binding affinity to SARS-CoV-2 nsp14 assessed as change in melting temperature preincubated for 20 mins followed by heating by thermal shift assay
[16] = tested on: Severe acute respiratory syndrome coronavirus 2; assay: Binding affinity to SARS-CoV-2 nsp5 assessed as change in melting temperature preincubated for 20 mins followed by heating by thermal shift assay
[17] = molecular target: Xanthine dehydrogenase/oxidase (Bos taurus, UniProt P80457); assay: Inhibition of bovine milk xanthine oxidase using xanthine as substrate preincubated for 30 mins followed by substrate addition measured for 200 secs by spectrophotometry
[18] = Antioxidant activity assessed as DPPH radical scavenging activity at 200 uM measured after 2 mins by ESR spectroscopy relative to control; format: functional
[19] = Antioxidant activity assessed as DPPH radical scavenging activity at 50 uM measured after 2 mins by ESR spectroscopy relative to control; format: functional
[20] = Antioxidant activity assessed as DPPH radical scavenging activity at 25 uM measured after 2 mins by ESR spectroscopy relative to control; format: functional
[21] = molecular target: T1, Xanthine dehydrogenase/oxidase (Homo sapiens, UniProt P47989); assay: Inhibition of xanthine oxidase (unknown origin)
[22] = Cmax in Sprague-Dawley rat at 224 umol/kg, po measured for 2160 mins; format: ADME, organism-based; conditions: in vivo, 36 h, dose 224 µmol/kg
[23] = AUC (0 to 360 min) in Sprague-Dawley rat at 224 umol/kg, po; format: ADME; conditions: in vivo, 6 h, dose 224 µmol/kg
[24] = Drug metabolism in Sprague-Dawley rat assessed as circulating drug conjugates by measuring AUC (0 to 360 min) at 37 umol/kg, iv; format: ADME; conditions: in vivo, 6 h, dose 37 µmol/kg
[25] = AUC (0 to 360 min) in Sprague-Dawley rat at 37 umol/kg, iv; format: ADME; conditions: in vivo, 6 h, dose 37 µmol/kg
[26] = Oral bioavailability in rat; format: ADME, organism-based; conditions: in vivo
[27] = Apparent permeability in human Caco-2 cells measured for 30 to 180 mins by HPLC analysis; format: ADME, cell-based; conditions: time 30-180 min
[28] = Solubility of compound in water; format: physicochemical
[29] = tested on: SARS-CoV-2; assay: Antiviral activity against SARS-CoV-2 TY/WK-521 infected in African green monkey Vero E6 cells assessed as reduction in viral replication preincubated with cell culture for 1 hr and further infected with virus for 2 hrs followed by compound washout and subsequent addition of medium containing compounds measured for 48 hrs post-infection by qRT-PCR analysis; format: functional, organism-based; conditions: Severe acute respiratory syndrome coronavirus 2, TY/WK-521, Vero C1008
[30] = Cytotoxicity against African green monkey Vero E6 cells assessed as reduction in cell viability incubated for 3 days by MTT assay; format: toxicity, cell-based, Vero C1008; conditions: chlorocebus sabaeus, time 3 day
[31] = tested on: SARS-CoV-2; assay: Antiviral activity against SARS-CoV-2 infected in African green monkey Vero cells assessed as reduction in viral replication; format: functional, organism-based; conditions: Severe acute respiratory syndrome coronavirus 2, Vero
[32] = molecular target: Angiotensin-converting enzyme 2 (Homo sapiens) (UniProt Q9BYF1); assay: Inhibition of ACE2 in human SAEC cells at 25 uM incubated for 6 days by ELISA relative to control; format: cell-based; conditions: time 6.0 day
[33] = molecular target: Angiotensin-converting enzyme 2 (Homo sapiens) (UniProt Q9BYF1); assay: Synergistic inhibition of ACE2 in human SAEC cells at 25 uM incubated for 6 days in presence of ascorbic acid by ELISA relative to control; format: cell-based; conditions: time 6.0 day
[34] = molecular target: T2, Renin (Homo sapiens, UniProt P00797); assay: Inhibition of recombinant human renin using Arg-Glu(EDANS)-lle-His-Pro-Phe-His-Leu-Val-lle-His-Thr-Lys(dabcyl)-Arg as substrate incubated for 5 to 10 mins by fluorescence based assay
T2 sequence (P00797 whole entry): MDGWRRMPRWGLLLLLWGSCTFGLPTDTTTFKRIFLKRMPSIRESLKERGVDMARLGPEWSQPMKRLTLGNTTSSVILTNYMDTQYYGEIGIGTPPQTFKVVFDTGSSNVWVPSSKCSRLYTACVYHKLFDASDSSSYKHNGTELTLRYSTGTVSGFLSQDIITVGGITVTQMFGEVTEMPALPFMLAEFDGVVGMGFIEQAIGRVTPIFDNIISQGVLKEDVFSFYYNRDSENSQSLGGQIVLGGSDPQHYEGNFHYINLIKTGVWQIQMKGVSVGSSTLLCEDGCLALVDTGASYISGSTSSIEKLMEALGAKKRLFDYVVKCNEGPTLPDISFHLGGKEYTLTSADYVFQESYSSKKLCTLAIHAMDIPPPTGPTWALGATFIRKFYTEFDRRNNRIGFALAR

[35] = molecular target: Angiotensin-converting enzyme (Homo sapiens, UniProt P12821); assay: Inhibition of ACE (unknown origin) using Hippuryo-histidyl-leucine as substrate incubated for 40 mins by absorbance based assay
[36] = Inhibition of SARS-CoV-2 nsp15 endonuclease activity using 5'-FAM-dArUdAdAdA-TAMRA-3' as substrate measure for 1 hr by fluorescence based assay; set-up: species or system Severe acute respiratory syndrome coronavirus 2
[37] = tested on: SARS-CoV-2; assay: Antiviral activity against SARS-CoV-2 NCCP 43326 infected in African green monkey Vero cells assessed as reduction in viral infection preincubated with cell culture for 30 mins and further infected with virus measured after 72 hrs by plaque reduction neutralization test method; format: functional, organism-based; conditions: Severe acute respiratory syndrome coronavirus 2, NCCP 43326, Vero
[38] = tested on: Influenza A virus; assay: Antiviral activity against Influenza A virus H1N1 FM/1/47 infected in BALB/c mouse assessed as decrease in recruitment of M1-polarized CD11b+ and F4/80+ macrophages in BALF at 80 mg/kg/day, po qd for 7 days by flow cytometry relative to control; format: functional; set-up: scale not given: the % may be the effect or the level left; conditions: time 7 day
[39] = tested on: Influenza A virus; assay: Antiviral activity against Influenza A virus H1N1 FM/1/47 infected in BALB/c mouse assessed as macrophage polarization in BALF at 80 mg/kg/day, po qd for 7 days by flow cytometry (reference value: 95 %); format: functional; conditions: time 7 day
[40] = molecular target: T1, Xanthine dehydrogenase/oxidase; assay: Inhibition of xanthine oxidase (unknown origin) using xanthine as substrate preincubated for 30 mins followed by substrate addition by spectrophotometry

T1 sequence (P47989 whole entry): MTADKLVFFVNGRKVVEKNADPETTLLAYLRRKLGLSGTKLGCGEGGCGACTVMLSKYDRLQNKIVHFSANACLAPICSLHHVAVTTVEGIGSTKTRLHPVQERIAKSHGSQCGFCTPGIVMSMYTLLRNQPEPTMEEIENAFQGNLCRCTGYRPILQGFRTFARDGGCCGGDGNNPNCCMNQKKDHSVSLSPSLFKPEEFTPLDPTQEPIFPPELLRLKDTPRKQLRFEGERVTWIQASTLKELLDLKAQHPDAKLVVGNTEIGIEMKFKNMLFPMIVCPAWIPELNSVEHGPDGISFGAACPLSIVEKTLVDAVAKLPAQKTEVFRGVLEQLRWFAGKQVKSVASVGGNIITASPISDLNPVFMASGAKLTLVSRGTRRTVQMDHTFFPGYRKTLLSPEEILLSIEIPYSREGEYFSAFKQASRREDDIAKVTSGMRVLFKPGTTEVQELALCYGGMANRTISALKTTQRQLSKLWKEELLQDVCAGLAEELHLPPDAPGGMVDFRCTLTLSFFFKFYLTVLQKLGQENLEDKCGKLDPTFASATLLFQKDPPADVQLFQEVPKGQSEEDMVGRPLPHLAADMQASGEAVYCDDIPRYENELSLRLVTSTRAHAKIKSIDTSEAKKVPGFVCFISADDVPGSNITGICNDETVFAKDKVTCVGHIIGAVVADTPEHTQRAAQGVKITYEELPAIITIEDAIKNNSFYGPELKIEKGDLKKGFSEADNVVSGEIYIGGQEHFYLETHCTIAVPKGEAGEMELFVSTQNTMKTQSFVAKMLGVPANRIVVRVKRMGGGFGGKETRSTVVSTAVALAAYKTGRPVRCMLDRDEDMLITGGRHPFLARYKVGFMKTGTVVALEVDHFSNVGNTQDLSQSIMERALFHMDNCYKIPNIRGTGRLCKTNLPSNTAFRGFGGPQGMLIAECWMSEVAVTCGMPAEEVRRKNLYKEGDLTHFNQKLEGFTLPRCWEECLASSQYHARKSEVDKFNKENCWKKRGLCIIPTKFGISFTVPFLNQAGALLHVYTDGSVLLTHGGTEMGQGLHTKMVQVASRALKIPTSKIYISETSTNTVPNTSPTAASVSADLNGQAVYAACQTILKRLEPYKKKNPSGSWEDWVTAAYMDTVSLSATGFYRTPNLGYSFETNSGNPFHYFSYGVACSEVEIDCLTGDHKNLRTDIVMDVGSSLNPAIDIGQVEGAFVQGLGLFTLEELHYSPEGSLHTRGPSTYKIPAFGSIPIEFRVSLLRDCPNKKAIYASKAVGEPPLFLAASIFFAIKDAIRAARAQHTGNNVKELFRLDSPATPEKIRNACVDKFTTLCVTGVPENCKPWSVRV
Chain of Xanthine dehydrogenase/oxidase (Bos taurus, UniProt P80457) (P80457 whole entry): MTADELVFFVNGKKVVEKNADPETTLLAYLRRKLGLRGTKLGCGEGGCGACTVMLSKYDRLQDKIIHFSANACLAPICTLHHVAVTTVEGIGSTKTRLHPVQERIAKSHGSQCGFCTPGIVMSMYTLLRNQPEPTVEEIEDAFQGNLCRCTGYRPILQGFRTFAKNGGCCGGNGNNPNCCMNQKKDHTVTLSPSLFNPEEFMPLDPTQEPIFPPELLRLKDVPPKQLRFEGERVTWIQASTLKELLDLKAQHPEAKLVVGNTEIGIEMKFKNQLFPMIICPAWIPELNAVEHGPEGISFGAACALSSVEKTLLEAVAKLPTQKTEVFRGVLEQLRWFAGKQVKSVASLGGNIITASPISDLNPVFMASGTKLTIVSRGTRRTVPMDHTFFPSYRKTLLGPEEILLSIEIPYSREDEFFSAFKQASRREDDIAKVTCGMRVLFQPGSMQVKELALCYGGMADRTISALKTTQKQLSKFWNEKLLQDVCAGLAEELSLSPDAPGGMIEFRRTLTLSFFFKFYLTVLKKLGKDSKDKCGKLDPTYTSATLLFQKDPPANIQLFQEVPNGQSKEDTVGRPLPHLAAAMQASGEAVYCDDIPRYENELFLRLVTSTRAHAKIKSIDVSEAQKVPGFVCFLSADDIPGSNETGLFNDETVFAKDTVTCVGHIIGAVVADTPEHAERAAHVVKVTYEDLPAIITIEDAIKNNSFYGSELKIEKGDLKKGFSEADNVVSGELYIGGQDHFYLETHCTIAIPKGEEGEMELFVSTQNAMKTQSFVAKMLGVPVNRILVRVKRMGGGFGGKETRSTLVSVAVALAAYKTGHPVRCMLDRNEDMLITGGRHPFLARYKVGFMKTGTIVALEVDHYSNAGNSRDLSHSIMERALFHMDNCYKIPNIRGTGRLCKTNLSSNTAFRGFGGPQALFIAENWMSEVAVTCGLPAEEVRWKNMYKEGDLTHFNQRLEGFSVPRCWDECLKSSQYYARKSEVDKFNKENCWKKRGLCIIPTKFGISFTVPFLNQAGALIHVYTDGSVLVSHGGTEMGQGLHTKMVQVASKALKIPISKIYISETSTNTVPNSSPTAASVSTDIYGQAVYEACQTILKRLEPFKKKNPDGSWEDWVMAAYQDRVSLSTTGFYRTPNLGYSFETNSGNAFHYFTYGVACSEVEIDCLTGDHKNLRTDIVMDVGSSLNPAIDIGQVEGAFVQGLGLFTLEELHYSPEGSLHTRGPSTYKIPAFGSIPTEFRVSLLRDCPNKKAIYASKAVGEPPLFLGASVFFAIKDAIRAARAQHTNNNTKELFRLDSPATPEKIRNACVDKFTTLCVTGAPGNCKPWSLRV
Chain of Angiotensin-converting enzyme 2 (Homo sapiens) (Q9BYF1 18-805 limits assumed): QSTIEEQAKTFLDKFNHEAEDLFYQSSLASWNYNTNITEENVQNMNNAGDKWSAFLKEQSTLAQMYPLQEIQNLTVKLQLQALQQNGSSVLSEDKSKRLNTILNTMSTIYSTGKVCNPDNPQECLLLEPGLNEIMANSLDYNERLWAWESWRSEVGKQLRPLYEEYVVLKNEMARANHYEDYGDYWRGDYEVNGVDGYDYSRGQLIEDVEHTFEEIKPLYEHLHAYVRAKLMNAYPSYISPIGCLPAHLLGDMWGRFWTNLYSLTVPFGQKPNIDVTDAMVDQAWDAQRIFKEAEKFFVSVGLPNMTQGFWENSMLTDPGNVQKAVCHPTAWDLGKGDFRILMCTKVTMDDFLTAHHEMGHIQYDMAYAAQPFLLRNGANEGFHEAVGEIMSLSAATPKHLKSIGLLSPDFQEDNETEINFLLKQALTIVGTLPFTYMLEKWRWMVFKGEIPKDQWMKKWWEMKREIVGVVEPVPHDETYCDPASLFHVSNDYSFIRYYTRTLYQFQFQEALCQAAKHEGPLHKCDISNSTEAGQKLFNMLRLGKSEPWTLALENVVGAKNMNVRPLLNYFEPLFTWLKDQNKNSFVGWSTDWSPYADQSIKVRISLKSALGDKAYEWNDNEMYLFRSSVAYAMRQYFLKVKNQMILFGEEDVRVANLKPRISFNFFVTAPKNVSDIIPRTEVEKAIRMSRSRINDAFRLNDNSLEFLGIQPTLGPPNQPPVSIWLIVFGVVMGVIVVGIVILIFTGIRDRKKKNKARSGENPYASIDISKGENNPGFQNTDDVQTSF
Chain of Angiotensin-converting enzyme (P12821 whole entry): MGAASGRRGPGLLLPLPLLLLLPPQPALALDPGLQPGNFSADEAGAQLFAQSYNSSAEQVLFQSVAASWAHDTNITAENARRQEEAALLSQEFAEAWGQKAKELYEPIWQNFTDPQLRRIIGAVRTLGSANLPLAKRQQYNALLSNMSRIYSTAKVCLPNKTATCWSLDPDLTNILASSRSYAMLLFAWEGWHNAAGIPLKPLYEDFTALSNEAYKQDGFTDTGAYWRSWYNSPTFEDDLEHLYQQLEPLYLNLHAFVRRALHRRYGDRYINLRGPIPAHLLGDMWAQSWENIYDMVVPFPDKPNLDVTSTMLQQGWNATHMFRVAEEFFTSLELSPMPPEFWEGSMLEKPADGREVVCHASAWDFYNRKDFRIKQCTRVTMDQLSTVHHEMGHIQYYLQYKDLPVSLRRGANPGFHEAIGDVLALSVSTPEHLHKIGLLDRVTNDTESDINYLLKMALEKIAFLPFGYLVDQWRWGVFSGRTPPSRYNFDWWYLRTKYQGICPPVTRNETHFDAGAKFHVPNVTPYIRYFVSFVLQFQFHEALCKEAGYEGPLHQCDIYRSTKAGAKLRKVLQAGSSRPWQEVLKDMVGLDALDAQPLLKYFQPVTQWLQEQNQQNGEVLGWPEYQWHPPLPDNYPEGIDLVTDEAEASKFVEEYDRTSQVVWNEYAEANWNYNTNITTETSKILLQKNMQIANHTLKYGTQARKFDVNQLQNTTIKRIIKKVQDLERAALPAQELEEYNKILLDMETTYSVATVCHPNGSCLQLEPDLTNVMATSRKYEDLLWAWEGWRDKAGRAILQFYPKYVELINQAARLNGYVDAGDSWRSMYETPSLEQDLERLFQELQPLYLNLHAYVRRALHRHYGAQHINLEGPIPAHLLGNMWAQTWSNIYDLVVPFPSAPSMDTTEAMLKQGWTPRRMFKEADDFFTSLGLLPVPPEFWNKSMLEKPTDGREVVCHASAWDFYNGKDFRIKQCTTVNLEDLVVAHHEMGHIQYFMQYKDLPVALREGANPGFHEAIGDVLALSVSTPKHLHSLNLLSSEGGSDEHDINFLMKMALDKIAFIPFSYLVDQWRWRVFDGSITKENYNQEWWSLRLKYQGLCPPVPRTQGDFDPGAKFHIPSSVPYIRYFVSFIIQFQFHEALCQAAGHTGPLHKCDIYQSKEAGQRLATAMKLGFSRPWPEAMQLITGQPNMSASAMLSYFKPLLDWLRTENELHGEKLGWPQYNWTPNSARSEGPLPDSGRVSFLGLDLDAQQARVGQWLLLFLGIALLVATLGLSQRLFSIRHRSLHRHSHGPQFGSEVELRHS

## CC(=O)Nc1ccc(C)c(C(=O)N[C@H](C)c2cccc3ccccc23)c1
[1]
  IC50: 1.73 µM

## O=c1cc(-c2ccccc2)oc2cc(O)c(O)c(O)c12 [BAICALEIN]
[2]
  bioavailability: 13.1%
[3]
  solubility: 16.8 µg/mL (≈ 62.2 µM)
[4]
  ΔTm: 3.9 °C
[5]
  CC50: > 200 µM
[6]
  inhibition at 30 µM: 14.6%
[7]
  CC50 at 96 h: 8.6 µM
[8]
  CC50 at 96 h: 9.1 µM
[9]
  CC50: > 500 µM
[10]
  inhibition at 12.5 µg/mL: 100%
[11]
  inhibition at 25 µg/mL: 89.8%
[12]
  IC50: 1.18 µM
[13]
  inhibition: 94.7%
[14]
  inhibition: < 50%
[15]
  ΔTm: 1.5 °C
[16]
  ΔTm: 0.9 °C
[17]
  IC50: 7.54 µM
[18]
  Activity: > 50%
[19]
  Activity: 55%
[20]
  Activity: 69%
[21]
  IC50: 3.12 µM
[22]
  Cmax: 13.6 nM/ml
[23]
  AUC: 2980.5 nM.min/ml
[24]
  AUC: 927.2 nM.min/ml
[25]
  AUC: 297.6 nM.min/ml

## O=C(O)[C@H]1O[C@@H](Oc2cc3oc(-c4ccccc4)cc(=O)c3c(O)c2O)[C@H](O)[C@@H](O)[C@@H]1O [BAICALIN]
[26]
  F: 2.2%
[27]
  Papp: 0.037 ×10⁻⁶ cm/s
[28]
  solubility: 67 µg/mL (≈ 150 µM)
[29]
  EC50: 8.8 µM
[30]
  CC50 at 72 h: > 1000 µM
[31]
  EC50: 10.3 µM
[5]
  CC50: > 200 µM
[32]
  inhibition: 75%
[33]
  inhibition: 82%
[34]
  IC50: 120 µM
[35]
  IC50: 2240 µM
[7]
  CC50 at 96 h: > 100 µM
[8]
  CC50 at 96 h: > 100 µM
[36]
  IC50: 7.98 µM
[37]
  EC50: 83.3 µM
[38]
  Activity: ~90%
[39]
  Activity: 97%
[40]
  IC50: 55.6 µM
[17]
  IC50: 123 µM
[19]
  Activity: 17%
[20]
  Activity: 42%
[21]
  IC50: 157 µM
[22]
  Cmax: 2.9 nM/ml
[23]
  AUC: 1943.7 nM.min/ml
